According to PMC9663578, “A fluorogenic probe for predicting treatment response in non-small cell lung cancer with EGFR-activating mutations” (Nature Communications, 2022):
“And” between values parts separate entries of the source, which are not always exact repeats. Identical values can stand only once.

Tests used:
H1975 cells = experiment: FACS assay in cultured cells; conditions: for HX103 dose-dependent signal (Supplementary Fig. 18): 20 µM = 100
Description: (§1) Briefly, the cultured cells were seeded on the petri dish and counted using Count star BioMed automated cell counter. Around 10^6 live-cells were collected and were pelleted (2000×g, 3 min), followed by washing with PBS (2x). Cells were then resuspended in PBS buffer containing 0.1% BSA (1 × 10^6 cells/mL). […] The cell suspension was resuspended in PBS and analyzed with a FACSVerse^TM flow cytometer (BD Biosciences, LSRFortessa). About 10,000 events per tube were analyzed and the mean fluorescence intensity was detected and analyzed.
(§2) For the FACS assay with EGFR antibody, around 10^6 live-cells were collected and washed with PBS (2x). The cells were fixed by 400 µL 4% paraformaldehyde for 15 min at room temperature, followed by permeabilization with 0.1% Triton X-100 for 10 min and blocking with 5% BSA for 30 min. […] The cells were then washed with 0.5% BSA/PBS (3x) and resuspended in 400 µL of 0.1% BSA/PBS. […] The resuspended cell suspension was then analyzed on a FACSVerseTM flow cytometer (BD Biosciences, LSRFortessa). Nonspecific fluorescence binding was omitted by Rabbit mAb IgG isotype control (#3900, CST, 1:100) and the corresponding mean fluorescence was subtracted from the signal measured with each primary antibody. About 10,000 events per tube were analyzed and the mean fluorescence intensity was detected and analyzed.
(§3) Subsequently, the treated cells were incubated for 30 min at 37 °C, followed by washing with PBS buffer three times. […] Finally, the co-stained cells were washed with 0.5% BSA/PBS for three times and resuspended in 400 µL of 0.1% BSA/PBS. The obtained cell suspension was ready for analysis. Nonspecific fluorescence binding was omitted by Rabbit mAb IgG isotype control (#3900, CST, 1:100) as described above.
(§4) Nonspecific fluorescence binding was omitted by Rabbit mAb IgG isotype control (#3900, CST, 1:100). […] After incubation for another 30 min at room temperature, the co-stained cells were washed with 0.5% BSA/PBS for three times and resuspended in 400 µL of 0.1% BSA/PBS. The obtained cell suspension was ready for analysis. Nonspecific fluorescence binding was omitted by Rabbit mAb IgG isotype control (#3900, CST, 1:100) as described above.
(§5) The cells were seeded on the petri dish and cultured at the normal condition with 10% FBS, and that was changed to serum-free condition for 24 h when the cells proliferated at ~80% confluence. […] Nonspecific fluorescence binding was omitted by Rabbit mAb IgG isotype control (#3900, CST, 1:100) as described above.

EGFR wild-type = molecular target: T1, EGFR wild-type (Homo sapiens, UniProt P00533); experiment: Fluorescence turn-on response / titration of HX103 with recombinant EGFR;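 as to Fluorescence intensity at 570 nm: 100% is HX103 fluorescence with wild-type EGFR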; type: binding; conditions: for Fluorescence intensity at 570 nm / Fluorescence response of HX103 to EGFR wild-type: n=1-3; for Fluorescence intensity, Wild-type: Fig. 2c; for Fluorescence response of HX103 to EGFR wild-type: Supplementary Fig. 2f
T1 construct: Recombinant human EGFR (amino acids 668–1210, #PR7295B); purchased Thermo Fisher PR7295B
T1 sequence (P00533 668-1210): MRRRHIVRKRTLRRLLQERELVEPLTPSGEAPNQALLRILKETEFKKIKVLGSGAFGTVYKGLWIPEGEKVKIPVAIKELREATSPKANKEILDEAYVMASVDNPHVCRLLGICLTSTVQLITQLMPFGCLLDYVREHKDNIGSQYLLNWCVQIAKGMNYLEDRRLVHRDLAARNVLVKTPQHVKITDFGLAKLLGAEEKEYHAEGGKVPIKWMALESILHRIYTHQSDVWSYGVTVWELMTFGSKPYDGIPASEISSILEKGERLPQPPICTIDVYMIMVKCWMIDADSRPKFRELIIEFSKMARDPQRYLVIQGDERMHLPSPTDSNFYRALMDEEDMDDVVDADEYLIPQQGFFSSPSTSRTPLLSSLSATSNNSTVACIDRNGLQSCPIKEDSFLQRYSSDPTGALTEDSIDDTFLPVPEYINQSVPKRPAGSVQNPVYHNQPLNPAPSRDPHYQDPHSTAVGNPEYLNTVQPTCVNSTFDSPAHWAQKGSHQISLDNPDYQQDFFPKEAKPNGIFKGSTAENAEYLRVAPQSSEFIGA
Description: (d) Fluorescence spectra change of HX103 (5 µ M) with increasing concentration of EGFR L858R
(e) Fluorescence spectra change of HX103 (5 µ M ) with
increasing concentration of EGFR 19del (0 to 6 µM) in PBS buffer. (f) Titration curve of HX103
(5 µM) with increasing concentration of EGFRs (0 to 6 µM). The apparent binding affinity (Kd)
The fluorescence titration curve was fitted on one -
site specific binding model. I and I0 represent the intensities of HX103 at 570 nm in the presence
and absence of protein. Data represent average val ues ± SD, n = 3 independent experiments per
dissolved in dimethyl sulfoxide (DMSO) to obtain stock solutions (10 mM). The prepared stock
solution was diluted in sodium phosphate buffer (PBS, 1 M, pH=7.4) to obtain the desired final
concentration solution, containing 0.1% (v/v) DMSO as a cosolvent.
and emission fluorescence spectra of the solution before/after addition o f different concentration
Data analysis：The obtained fluorescence intensity at 570 nm (Excitation wavelength was 440
nm) in each sample was normalized by using the fluorescence intensity of HX103 in the presence
of EGFR. Specifically, the fluorescence intensity of HX103 in the presence of EGFR wild-type
was set at 100% to normalized that of the remaining samples.

PC-9 cells = experiment: MTT cytotoxicity assay; type: cell-based; conditions: Homo sapiens, EGFR 19del, 48 h, n=3
[1] = tested on: tumor tissues from NSCLC patients; experiment: HX103-based multicolor FACS, surgical tumor tissues; type: cell-based, human
Description: The obtained tissues were dissociated into single-cell suspension using a standard protocol of primary cell isolation. Briefly, the obtained fresh tissue was placed in a petri dish on ice and cut into small pieces of ~2 mm. […] Subsequently, the digested sample was filtered through 70-μm and 40-μm cell strainer (Falcon), respectively, followed by the wash with serum-free medium (DMEM). The tumor cell pellet was then obtained by centrifugation at 500×g for 5 min at 4 °C for the removal of the supernatant. Then, the cell pellet was resuspended in serum-free medium and 1 mL of red blood cell lysis buffer was added and incubated for 5 min to remove the erythrocyte. The cells were pelleted and resuspended in a serum-free medium and ready for FACS analysis[67],[68]. […]
Gibco), and digested for 30 min at 37 ℃ under gentle agitation. […] The cells were pelleted and resuspended in serum-free medium and ready for FACS analysis 2, 3. […]
The co-staining was performed for 30 min at 37 °C, then the cells were pelleted (2000 g, 3 min) and washed with PBS buffer and PBS (containing 1% BSA) (2 times). The cells were pelleted (2000 g, 3 min) and resuspended in PBS (containing 1% BSA) and ready for analysis with a FACSVerseTM flow cytometer (BD Biosciences, LSRFortessa) (the lasers used for this study: 405 nm, 488 nm and 647 nm). […]

HCC827 cells = experiment: FACS assay in cultured cells; conditions: for HX103 dose-dependent signal (Supplementary Fig. 18): 20 µM = 100
Description: as §1, §2, §3, §4, §5

[2] = tested on: biopsy samples from NSCLC patients; experiment: HX103-based multicolor FACS, biopsy samples; type: cell-based, human
EGFR T790M = molecular target: T2, EGFR T790M (Homo sapiens, UniProt P00533, T790M); experiment: Kinase inhibition assay (fluorescent mobility-shift assay); type: biochemical; parameters: Kinase activity: unit not given here; conditions: for Kinase activity: T790M, n=1-3;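 as to all read-outs here: Cell-free assay with recombinant human EGFR T790M enzyme, compound preincubated with the kinase at room temperature before the reaction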
T2 construct: EGFR T790M (amino acids 668–1210, #PR8052A); purchased Thermo Fisher PR8052A
T2 sequence (P00533 668-1210 T790M): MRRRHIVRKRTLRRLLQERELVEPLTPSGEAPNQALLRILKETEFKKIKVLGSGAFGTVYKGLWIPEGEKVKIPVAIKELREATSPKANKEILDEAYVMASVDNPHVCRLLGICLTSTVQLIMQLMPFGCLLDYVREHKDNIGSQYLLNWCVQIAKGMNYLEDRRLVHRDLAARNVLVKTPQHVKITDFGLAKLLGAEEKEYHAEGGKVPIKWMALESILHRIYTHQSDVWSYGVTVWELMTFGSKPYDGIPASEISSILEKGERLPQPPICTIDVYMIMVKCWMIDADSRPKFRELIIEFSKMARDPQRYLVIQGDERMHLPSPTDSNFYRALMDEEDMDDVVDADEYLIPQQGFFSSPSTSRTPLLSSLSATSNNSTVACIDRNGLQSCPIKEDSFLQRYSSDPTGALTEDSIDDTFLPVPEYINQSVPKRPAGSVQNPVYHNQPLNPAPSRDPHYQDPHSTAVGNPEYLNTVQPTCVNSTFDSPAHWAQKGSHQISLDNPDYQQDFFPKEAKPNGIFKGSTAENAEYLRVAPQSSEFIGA

[3] = HX103 5 µM, 30 min, replicates n=1-3
[4] = Fig. 6d, Mutation, average over patients
[5] = Fig. 6d, Mutation, one value per patient
[6] = Fig. 6d, WT, average over patients
[7] = Fig. 6d, WT, one value per patient

COc1cc2c(Nc3ccc(F)c(Cl)c3)ncnc2cc1OCCCNc1ccc(S(=O)(=O)N(C)C)c2nonc12 [HX103]
EGFR(+) HX103 (+) (%) AVE (H1975 cells; H1975, AVE of n=3): 82.37% | HX103 (+) (%) AVE (H1975 cells; H1975, AVE of n=3): 87.9667% | HX103 dose-dependent signal (Supplementary Fig. 18) (H1975 cells; H1975, HX103 0.04 µM): 2.425 and 4.214 and 3.319 | HX103 dose-dependent signal (Supplementary Fig. 18) (H1975 cells; H1975, HX103 0.37 µM): 11.9338 and 12.3486 and 12.1512 | HX103 dose-dependent signal (Supplementary Fig. 18) (H1975 cells; H1975, HX103 1.1 µM): 36.5652 and 42.2419 and 39.4086 | HX103 dose-dependent signal (Supplementary Fig. 18) (H1975 cells; H1975, HX103 3.3 µM): 51.8347 and 43.4647 and 47.0457 | HX103 dose-dependent signal (Supplementary Fig. 18) (H1975 cells; H1975, HX103 10 µM): 81.1792 and 74.1549 and 77.687 | HX103 dose-dependent signal (Supplementary Fig. 18) (H1975 cells; H1975, HX103 15 µM): 93.412 and 78.0323 and 85.7212 | HX103 dose-dependent signal (Supplementary Fig. 18) (H1975 cells; H1975, HX103 20 µM): 100 | HX103 signal (Supplementary Fig. 7) (H1975 cells; H1975, HX103 alone or with Gefitinib, replicates n=1-3): 118.617 and 81.9826 and 99.4 | EGFR(+) HX103 (+) (%) (H1975 cells; H1975, replicates n=1-3): 74.3% and 85.37% and 87.44% | HX103(+) (%) (H1975 cells; H1975, replicates n=1-3): 98.62% and 87.52% and 77.76% | normalized MFI of HX103 labeling (H1975 cells; [3]): 81.9742% and 118.026% and 100% | EGFR(+) HX103 (+) (%) (H1975 cells; HX103 5 µM, replicates n=1-3): 85.37% and 87.44% and 74.3% | Fluorescence intensity at 570 nm (EGFR wild-type; Fig. 2b, EGFR+Afa.+HX103): 40.8352 and 40.5015 and 39.6477 | Fluorescence intensity at 570 nm (EGFR wild-type; Fig. 2b, EGFR+Compound 4+HX103): 34.8404 and 34.012 and 33.2139 | Fluorescence intensity at 570 nm (EGFR wild-type; Fig. 2b, EGFR+Gef.+HX103): 52.1782 and 56.1359 and 43.6715 | Fluorescence intensity at 570 nm (EGFR wild-type; Fig. 2b, EGFR+HX103): 102.993 and 106.909 and 90.0974 | Fluorescence intensity, Wild-type (EGFR wild-type; wavelength 666 nm): 3857.08 | Fluorescence intensity, Wild-type (EGFR wild-type; wavelength 669 nm): 3668.59 | Fluorescence intensity, Wild-type (EGFR wild-type; wavelength 671 nm): 3481.17 | Fluorescence intensity, Wild-type (EGFR wild-type; wavelength 673 nm): 3297.98 | Fluorescence intensity, Wild-type (EGFR wild-type; wavelength 676 nm): 3120.62 | Fluorescence intensity, Wild-type (EGFR wild-type; wavelength 678 nm): 2950.6 | Fluorescence intensity, Wild-type (EGFR wild-type; wavelength 681 nm): 2789.44 | Fluorescence intensity, Wild-type (EGFR wild-type; wavelength 683 nm): 2638.8 | Fluorescence intensity, Wild-type (EGFR wild-type; wavelength 686 nm): 2500.58 | Fluorescence intensity, Wild-type (EGFR wild-type; wavelength 688 nm): 2376.72 | Fluorescence intensity, Wild-type (EGFR wild-type; wavelength 690 nm): 2269.12 | Fluorescence intensity, Wild-type (EGFR wild-type; wavelength 693 nm): 2178.16 | Fluorescence intensity, Wild-type (EGFR wild-type; wavelength 695 nm): 2100.14 | Fluorescence intensity, Wild-type (EGFR wild-type; wavelength 698 nm): 2030.74 | Fluorescence intensity, Wild-type (EGFR wild-type; wavelength 700 nm): 1965.66 | Fluorescence intensity at 570 nm (EGFR wild-type; Fig. 2d, HX103 with EGFR WT): 95.7649 and 96.5955 and 107.639 | fluorescence turn-on response (EGFR wild-type; HX103 5 µM in PBS buffer (0.1% DMSO), 570 nm): high fluorescence | Kd (EGFR wild-type; HX103 5 µM, EGFR 0 to 6 µM in PBS, one-site specific binding model, read-out: apparent binding affinity (Kd)): 2700 ± 400 nM | Fluorescence response of HX103 to EGFR wild-type (EGFR wild-type; EGFR 0.1 µM): 1.163 and 1.321 and 1.006 | Fluorescence response of HX103 to EGFR wild-type (EGFR wild-type; EGFR 0.5 µM): 2.913 and 3.724 and 2.102 | Fluorescence response of HX103 to EGFR wild-type (EGFR wild-type; EGFR 5 µM): 10.0441 and 11.0703 and 9.62 | Fluorescence response of HX103 to EGFR wild-type (EGFR wild-type; EGFR 6 µM): 11.047 and 11.7068 and 10.3878 | IC50 (PC-9 cells): 1800 nM | mean % value of HX103(+), EGFR 19del tumors ([1]; n = 4): 40.6±8.2% | mean % value of HX103(+), EGFR L858R tumors ([1]; n = 8): 65.3±10.9% | EGFR(+) HX103 (+) (%) AVE (HCC827 cells; HCC827, AVE of n=3): 80.23% | HX103 (+) (%) AVE (HCC827 cells; HCC827, AVE of n=3): 86.6667% | HX103 dose-dependent signal (Supplementary Fig. 18) (HCC827 cells; HCC827, HX103 0.01 µM): 0.7326 and 0.7683 and 0.9746 | HX103 dose-dependent signal (Supplementary Fig. 18) (HCC827 cells; HCC827, HX103 0.04 µM): 2.846 and 2.806 and 2.831 | HX103 dose-dependent signal (Supplementary Fig. 18) (HCC827 cells; HCC827, HX103 0.37 µM): 22.4134 and 22.8581 and 22.7877 | HX103 dose-dependent signal (Supplementary Fig. 18) (HCC827 cells; HCC827, HX103 1.1 µM): 38.2787 and 42.4364 and 41.8565 | HX103 dose-dependent signal (Supplementary Fig. 18) (HCC827 cells; HCC827, HX103 3.3 µM): 54.3583 and 44.1499 and 45.6521 | HX103 dose-dependent signal (Supplementary Fig. 18) (HCC827 cells; HCC827, HX103 10 µM): 74.1678 and 84.8664 and 79.5169 | HX103 dose-dependent signal (Supplementary Fig. 18) (HCC827 cells; HCC827, HX103 15 µM): 88.3889 and 68.5257 and 78.4542 | HX103 dose-dependent signal (Supplementary Fig. 18) (HCC827 cells; HCC827, HX103 20 µM): 100 | HX103 signal (Supplementary Fig. 7) (HCC827 cells; HCC827, HX103 alone or with Gefitinib, replicates n=1-3): 106.679 and 93.3209 and 100 | EGFR(+) HX103 (+) (%) (HCC827 cells; HCC827, replicates n=1-3): 76.09% and 81.73% and 82.87% | HX103(+) (%) (HCC827 cells; HCC827, replicates n=1-3): 99.17% and 83.21% and 77.62% | normalized MFI of HX103 labeling (HCC827 cells; [3]): 92.4893% and 105.794% and 84.1202% | EGFR(+) HX103 (+) (%) (HCC827 cells; HX103 5 µM, replicates n=1-3): 81.73% and 82.87% and 76.09% | mean ratio of EGFR(+)HX103(+), responders ([2]; CR or PR, n = 9): 43.5 ± 2.8% | mean ratio of HX103(+), responders ([2]; CR or PR, n = 9): 54.1 ± 3.3% | EGFR(+) HX103 (+) (%) AVE ([2]; Fig. 6f, CR/PR, average): 43.5167% | HX103 (+) (%) AVE ([2]; Fig. 6f, CR/PR, average): 54.1% | EGFR(+) HX103 (+) (%) AVE ([2]; Fig. 6f, SD/PD, average): 9.47% | HX103 (+) (%) AVE ([2]; Fig. 6f, SD/PD, average): 17.0025% | EGFR(+) HX103 (+) (%) ([2]; Fig. 6g, Patient (No. 3)): 26.16% | EGFR(+) HX103 (+) (%) ([2]; Fig. 6h, Patient (No. 7)): 34.2% | HX103(+) (%) ([2]; Fig. 6h, Patient (No. 7)): 51.5% | EGFR(+) HX103 (+) (%) AVE [2, 4]: 34.0833% | HX103 (+) (%) AVE [2, 4]: 48.2347% | EGFR(+) HX103 (+) (%) [2, 5]: 47.7% and 46.42% and 26.16% and 37.95% and 54.7% and 42.61% and 34.2% and 4.84% and 50.92% and 41.57% and 2.07% and 30.8% and 55.7% and 4.81% | HX103(+) (%) [2, 5]: 47.95% and 53.5% and 30.41% and 49.49% and 61.89% and 48.6% and 51.54% and 13.72% and 92.61% and 50.98% and 11.82% and 76% and 77.45% and 45.5% and 12.06% | EGFR(+) HX103 (+) (%) AVE [2, 6]: 3.4875% | HX103 (+) (%) AVE [2, 6]: 10.0231% | EGFR(+) HX103 (+) (%) [2, 7]: 2.605% and 13.7% and 4.44% and 3.27% and 0.6% and -0.34% and 1.35% and 4.89% and 0.098% and 0.24% and 1.08% and 10.76% and 4.24% and 2.1% and 0.447% and 6.32% | HX103(+) (%) [2, 7]: 5.005% and 21.85% and 10.96% and 7.41% and 3.16% and -1.81% and 3.59% and 12.92% and 4.005% and 1.16% and 7.12% and 18.43% and 19.52% and 10.47% and 20.56% and 16.02% | mean ratio of EGFR(+)HX103(+), non-responders ([2]; SD or PD, n = 4): 9.5 ± 5.6% | mean ratio of HX103(+), non-responders ([2]; SD or PD, n = 4): 17.0 ± 4.5% | decrease of inhibition toward T790M compared to 19del (EGFR T790M; IC50 T790M vs 19del): ~ 750 fold | decrease of inhibition toward T790M compared to L858R (EGFR T790M; IC50 T790M vs L858R): ~ 650 fold | Kinase activity (EGFR T790M; Log [HX103 (M)] -4.5): 14.55 and 14.95 and 12.5 | Kinase activity (EGFR T790M; Log [HX103 (M)] -5): 16 and 19.07 and 16.33 | Kinase activity (EGFR T790M; Log [HX103 (M)] -5.5): 24.68 and 25.89 and 23.04 | Kinase activity (EGFR T790M; Log [HX103 (M)] -6): 50.45 and 49.72 and 50.33 | Kinase activity (EGFR T790M; Log [HX103 (M)] -6.5): 74.42 and 70.48 and 67.65 | Kinase activity (EGFR T790M; Log [HX103 (M)] -7): 85.94 and 86.13 and 86.01 | Kinase activity (EGFR T790M; Log [HX103 (M)] -7.5): 96.44 and 90.88 and 91.86 | Kinase activity (EGFR T790M; Log [HX103 (M)] -8): 104.4 and 100.7 and 101.1 | Kinase activity (EGFR T790M; Log [HX103 (M)] -8.5): 97.33 and 103.4 and 97.96 | Kinase activity (EGFR T790M; Log [HX103 (M)] -9): 98.09 and 98.85 and 98.65 | IC50 (EGFR T790M; n = 3): 977 nM
